The source of these data is patent US20250109156A1, “INDOLE-CONTAINING MACROCYCLIC COMPOUNDS AND USES THEREOF” (JIANGSU AOSAIKANG PHARMACEUTICAL CO., LTD., priority 2022, published 2025).

One data set relates to HCC70 cells. Kind of data set: In vitro HCC70 cell activity assay (CellTiter-Glo proliferation). The format is cell-based. The conditions noted are these: Homo sapiens, 96 h, 4 days incubation. On the procedure:
Experimental Example 4: In Vitro HCC70 Cell Activity Assay
1640 culture medium, fetal bovine serum, penicillin/streptomycin antibiotics were purchased from WISENT. CellTiter-Glo (cell viability chemiluminescence detection reagent) reagent was purchased from Promega. HCC70 cell line was purchased from Nanjing Cobioer Biosciences Co. Ltd. Nivo multimode microplate reader (PerkinElmer).
The HCC70 cells were seeded in a white 96-well plate, with 80 μL of cell suspension per well, containing 6000 HCC70 cells each. The cell plate was incubated overnight in a CO2 incubator. The compounds to be tested were 3-fold diluted with a multi-channel pipette to the 8th concentration, i.e., diluted from 2 mM to […], and the experiment was set up in duplicate wells. 78 μL of culture medium was added to an intermediate plate, and then 2 μL of gradient diluted compound per well was transferred to the intermediate plate according to the corresponding position. After mixing well, the compound was transferred to the cell plate at 20 μL per well. The concentration of the compound transferred to the cell plate ranged from 10 μM to 1.52 nM. The cell plate was incubated in a CO2 incubator for 4 days. Another cell plate was prepared to measure the signal on the day of drug addition as the maximum value (denoted as Max in the equation below) for data analysis. 25 μL of cell viability chemiluminescence detection reagent was added to each well of this cell plate, and incubated at room temperature for 10 minutes to stabilize the luminescent signal. A multimode microplate reader was used for reading.
25 μL of cell viability chemiluminescence detection reagent was added to each well of this cell plate, and incubated at room temperature for 10 minutes to stabilize the luminescent signal. A multimode microplate reader was used for reading.
Using the equation (Sample−Min)/(Max−Min)*100% to convert the raw data into inhibition rate, the IC50 value may be obtained by curve fitting with four parameters (obtained by “log (inhibitor) vs. response—Variable slope” mode in GraphPad Prism). Table 1 provides the inhibitory activity of the compounds of the present disclosure on the proliferation of HCC70 cells.
On the technique in general: In ATP-based viability assays light output follows the ATP content of the culture.

For another data set, the system named is OVCAR3 cells. Kind of data set: In vitro OVCAR3 cell activity assay (CellTiter-Glo proliferation). The data set is classed as cell-based. The conditions noted are these: Homo sapiens, OVCAR-3, 72 h, 3 days incubation. On the procedure:
Experimental Example 5: In Vitro OVCAR3 Cell Activity Assay
1640 culture medium, fetal bovine serum, penicillin/streptomycin antibiotics were purchased from WISENT. CellTiter-Glo (cell viability chemiluminescence detection reagent) reagent was purchased from Promega. OVCAR3 cell line was purchased from Nanjing Cobioer Biosciences Co. Ltd. Nivo multimode microplate reader (PerkinElmer).
The OVCAR3 cells were seeded in a white 96-well plate, with 80 μL of cell suspension per well, containing 2000 OVCAR3 cells each. The cell plate was incubated overnight in a CO2 incubator.
The compounds to be tested were 5-fold diluted with a multi-channel pipette to the 8th concentration, i.e., diluted from 200 μM to 0.512 nM, and the experiment was set up in duplicate wells. 78 μL of culture medium was added to an intermediate plate, and then 2 μL of gradient diluted compound per well was transferred to the intermediate plate according to the corresponding position. After mixing well, the compound was transferred to the cell plate at 20 μL per well. The concentration of the compound transferred to the cell plate ranged from 1 μM to 0.0026 nM. The cell plate was incubated in a CO2 incubator for 3 days. Another cell plate was prepared to measure the signal on the day of drug addition as the maximum value (denoted as Max in the equation below) for data analysis. 25 μL of cell viability chemiluminescence detection reagent was added to each well of this cell plate, and incubated at room temperature for 10 minutes to stabilize the luminescent signal. A multimode microplate reader was used for reading. […]
Using the equation (Sample−Min)/(Max−Min)*100% to convert the raw data into inhibition rate, the IC50 value may be obtained by curve fitting with four parameters (obtained by “log (inhibitor) vs. response—Variable slope” mode in GraphPad Prism). Table 1 provides the inhibitory activity of the compounds of the present disclosure on the proliferation of OVCAR3 cells.

Data set [1] deals with HCC70 breast cancer xenograft (CDX). Kind of data set: In vivo efficacy study, HCC70 breast cancer CDX model. Also on record: species or system BALB/c nude mice. The conditions noted are these: for Animal tolerance: BALB/c nude mice, HCC70 CDX. On the procedure: Experimental Example 6: In Vivo Efficacy Study
In vivo efficacy experiments were conducted on BALB/c nude mice subcutaneously implanted with human tumor cell line-based xenograft (CDX) derived from HCC70 breast cancer patients.
BALB/c nude mice, female, 6 to 8 weeks old, weighing approximately 19 to 23 g, were maintained in a special pathogen-free environment in individual ventilated cages (6 mice per cage). All cages, bedding, and water were disinfected before use. All animals had free access to a standard certified commercial laboratory diet. A total of 36 mice, purchased from the Laboratory Animal Department of the Shanghai Institute of Planned Parenthood Research (formerly Shanghai SIPPR-BK), were used for the study. Each mouse was injected with 10×10^6 HCC70 cells on the right side of the neck, with an injection volume of 0.2 mL, and the cell suspension was in a 1:1 ratio of PBS and Matrigel. When the average tumor volume reached approximately 179 mm^3, random grouping was performed, and dosing was initiated.
Tumor volume was measured twice a week with a two-dimensional caliper, and the volume was measured in mm^3 and calculated by the following equation: V=0.5 a×b^2, where a and b are the long and short diameters of the tumor, respectively.

The structures appear in SMILES notation.

In general, IC50 refers to the concentration that gives 50% inhibition. In the data set on HCC70 cells, `CN1CCCCN2CCC[C@@H](C2)Nc2ncc(C(F)(F)F)c(n2)-c2c[nH]c3c(P(C)(C)=O)c(ccc23)C1=O` [Formate of compound 1] returned an IC50 of under 1.5 nM. The same compound gave a half-inhibitory concentration (IC50) with OVCAR3 cells of 0.3 nM. Also, in data set [1] (dose 1.5 mg/kg), the Animal tolerance result is “Good”, the “Tumor volume Day 0” value is 179 mm^3, the “Tumor volume Day 7” value stood at 273 mm^3 and the “Tumor volume Day 14” value was 178 mm^3. Also, the “Tumor volume Day 21” value in data set [1] (dose 1.5 mg/kg) stood at 105 mm^3.
As for `CP(C)(=O)c1c2ccc3c(c[nH]c13)-c1nc(ncc1C(F)(F)F)N[C@H]1CCCN(CCCCCCO2)C1` [Compound 4], the IC50 amounted to 0.6 nM in the data set on HCC70 cells and 0.2 nM with OVCAR3 cells.
For `CN1CCCCN2CCCC[C@@H](C2)Nc2ncc(C(F)(F)F)c(n2)-c2c[nH]c3c(P(C)(C)=O)c(ccc23)C1=O` [Compound 3], in that order: 1.4 nM and 0.6 nM.
In turn, `CP(C)(=O)c1c2ccc3c(c[nH]c13)-c1nc(ncc1C(F)(F)F)N[C@H]1CCCCN(CCCCNC2=O)C1` [Compound 6] showed an IC50 in the data set with HCC70 cells of 1.8 nM. Also, the 50% inhibitory concentration (IC50) in the data set with OVCAR3 cells worked out at 0.6 nM. In data set [1] (dose 3 mg/kg), the Animal tolerance result is listed as “Good”, the “Tumor volume Day 0” value came out at 179 mm^3, the “Tumor volume Day 7” value came out at 272 mm^3 and the “Tumor volume Day 14” value was found to be 344 mm^3. Besides, the “Tumor volume Day 21” value in data set [1] (dose 3 mg/kg) is 403 mm^3.
Compound `CP(C)(=O)c1c2ccc3c(c[nH]c13)-c1nc(ncc1C(F)(F)F)N[C@H]1CCCN(CCCCNC2=O)C1` [Compound 5] gave a half-inhibitory concentration (IC50) with HCC70 cells of 1 nM. Also, it took 0.2 nM to reach half-maximal inhibition in the data set on OVCAR3 cells (IC50). Also, in data set [1] (dose 3 mg/kg), the Animal tolerance result was “Good”, the “Tumor volume Day 0” value is on record as 179 mm^3, the “Tumor volume Day 7” value turned out to be 260 mm^3 and the “Tumor volume Day 14” value is listed as 305 mm^3. For the same compound, the “Tumor volume Day 21” value in data set [1] (dose 3 mg/kg) is recorded as 230 mm^3.
